Source: article PMC11720030, “Inhibitory Activity of N- and S-Functionalized Monoterpene Diols Towards Monoamine Oxidases A and B” (International Journal of Molecular Sciences, 2024)

Experiments:
Assay type in all cases: biochemical
MAO-A [1] = biological target: T1, MAO-A (Mus musculus, UniProt Q64133); experiment: fluorescent kynuramine MAO activity assay in crude mouse brain mitochondria
T1 construct: gene Maoa
T1 sequence (Q64133 1-526): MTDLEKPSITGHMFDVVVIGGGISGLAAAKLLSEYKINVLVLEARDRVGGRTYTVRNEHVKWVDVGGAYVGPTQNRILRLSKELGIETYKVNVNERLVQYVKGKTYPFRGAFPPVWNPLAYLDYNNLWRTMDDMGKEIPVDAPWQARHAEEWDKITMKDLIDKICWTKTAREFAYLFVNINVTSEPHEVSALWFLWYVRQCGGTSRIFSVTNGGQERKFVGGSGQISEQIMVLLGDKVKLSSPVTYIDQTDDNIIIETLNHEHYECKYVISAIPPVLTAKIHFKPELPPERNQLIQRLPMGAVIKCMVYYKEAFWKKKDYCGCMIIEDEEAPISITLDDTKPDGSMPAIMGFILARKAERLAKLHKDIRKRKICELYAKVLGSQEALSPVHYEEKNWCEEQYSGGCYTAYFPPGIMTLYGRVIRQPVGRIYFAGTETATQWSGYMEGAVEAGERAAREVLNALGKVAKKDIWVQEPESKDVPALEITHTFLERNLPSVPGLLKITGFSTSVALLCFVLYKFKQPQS

MAO-B [2] = biological target: T2, MAO-B (Mus musculus, UniProt Q8BW75); experiment: residual MAO-B activity at […], fluorescent kynuramine assay in crude mouse brain mitochondria; conditions: read-out: MAO-B, % ± SD
T2 construct: gene Maob
T2 sequence (Q8BW75 2-520): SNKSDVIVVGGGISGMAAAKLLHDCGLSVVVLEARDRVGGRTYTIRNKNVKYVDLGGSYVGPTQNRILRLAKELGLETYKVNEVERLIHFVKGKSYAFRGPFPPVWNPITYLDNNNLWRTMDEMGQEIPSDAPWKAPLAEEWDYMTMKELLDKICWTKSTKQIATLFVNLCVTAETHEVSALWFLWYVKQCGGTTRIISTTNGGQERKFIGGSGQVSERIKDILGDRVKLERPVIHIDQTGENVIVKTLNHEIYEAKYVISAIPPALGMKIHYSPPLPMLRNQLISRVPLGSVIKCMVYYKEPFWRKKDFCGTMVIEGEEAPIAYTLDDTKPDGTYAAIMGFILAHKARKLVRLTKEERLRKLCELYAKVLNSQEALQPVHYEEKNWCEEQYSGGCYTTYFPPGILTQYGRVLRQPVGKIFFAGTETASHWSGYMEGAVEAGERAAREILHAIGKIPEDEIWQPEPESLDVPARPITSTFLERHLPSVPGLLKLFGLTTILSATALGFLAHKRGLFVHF

MAO-B [3] = biological target: T2, MAO-B; experiment: fluorescent kynuramine MAO activity assay in crude mouse brain mitochondria
MAO-A [4] = biological target: T1, MAO-A; experiment: residual MAO-A activity at […], fluorescent kynuramine assay in crude mouse brain mitochondria; conditions: read-out: MAO-A, % ± SD

activity at 100 µM (MAO-B [2]) [%] | SMILES | IC50 (MAO-A [1]) [µM] | further results
– | C#CCN(C)CCCOc1ccc(Cl)cc1Cl [clorgiline, reference compound] | 0.00136 | –
66 ± 0.1 | C=C(CNc1ccc(C)cc1)[C@@H]1CC=C(C)[C@@H](O)[C@@H]1O [compound 27, (1R,2R,6S)-3-Methyl-6-(3-(p-tolylamino)prop-1-en-2-yl)cyclohex-3-ene-1,2-diol] | – | –
– | C=C(CNc1ccc(C)cc1C)[C@@H]1CC=C(C)[C@@H](O)[C@@H]1O [compound 28, (1R,2R,6S)-6-(3-(2,4-Dimethylphenylamino)prop-1-en-2-yl)-3-methylcyclohex-3-ene-1,2-diol] | 178 ± 44 | –
– | C=C(CNc1ccccc1C(C)=O)[C@@H]1CC=C(C)[C@@H](O)[C@@H]1O [compound 30, 1-(2-(2-((1S,5R,6R)-5,6-Dihydroxy-4-methylcyclohex-3-enyl)allylamino)phenyl)ethanone] | – | IC50 (MAO-B [3]): 95 ± 5 µM; activity at 100 µM (MAO-A [4]): 57 ± 1%
66 ± 2 | C=C(CNc1cccc(C(C)=O)c1)[C@@H]1CC=C(C)[C@@H](O)[C@@H]1O [compound 31, 1-(3-(2-((1S,5R,6R)-5,6-Dihydroxy-4-methylcyclohex-3-enyl)allylamino)phenyl)ethanone] | – | –
